Measurements reported in ChEMBL document CHEMBL2062394, “Azide-alkyne cycloaddition en route to novel 1H-1,2,3-triazole tethered isatin conjugates with in vitro cytotoxic evaluation” (Eur J Med Chem, 2012).

Columns and labels:
[1] = tested on: Caco-2; assay: Growth inhibition of human Caco2 cells at 100 uM after 48 hrs by SRB assay; assay type: functional; conditions: Caco-2, 48 h, read-out: GI
[2] = tested on: PC-3; assay: Growth inhibition of human PC3 cells at 50 uM after 48 hrs by SRB assay; assay type: functional; conditions: PC-3, 48 h, read-out: GI
[3] = tested on: THP-1; assay: Growth inhibition of human THP1 cells after 48 hrs by SRB assay; assay type: functional, cell-based; conditions: for IC50: THP-1, 48 h
[4] = tested on: PC-3; assay: Growth inhibition of human PC3 cells after 48 hrs by SRB assay; assay type: functional, cell-based; conditions: for IC50: PC-3, 48 h
[5] = tested on: A549; assay: Growth inhibition of human A549 cells at 100 uM after 48 hrs by SRB assay; assay type: functional; conditions: A549, 48 h, read-out: GI
[6] = tested on: A549; assay: Growth inhibition of human A549 cells at 50 uM after 48 hrs by SRB assay; assay type: functional; conditions: A549, 48 h, read-out: GI
[7] = tested on: THP-1; assay: Growth inhibition of human THP1 cells at 100 uM after 48 hrs by SRB assay; assay type: functional; conditions: THP-1, 48 h, read-out: GI
[8] = tested on: Caco-2; assay: Growth inhibition of human Caco2 cells at 10 uM after 48 hrs by SRB assay; assay type: functional; conditions: Caco-2, 48 h, read-out: GI
[9] = tested on: THP-1; assay: Growth inhibition of human THP1 cells at 10 uM after 48 hrs by SRB assay; assay type: functional; conditions: THP-1, 48 h, read-out: GI
[10] = tested on: Caco-2; assay: Growth inhibition of human Caco2 cells at 50 uM after 48 hrs by SRB assay; assay type: functional; conditions: Caco-2, 48 h, read-out: GI
[11] = tested on: PC-3; assay: Growth inhibition of human PC3 cells at 10 uM after 48 hrs by SRB assay; assay type: functional; conditions: PC-3, 48 h, read-out: GI
[12] = tested on: A549; assay: Growth inhibition of human A549 cells after 48 hrs by SRB assay; assay type: functional, cell-based; conditions: for IC50: A549, 48 h
[13] = tested on: A549; assay: Growth inhibition of human A549 cells at 10 uM after 48 hrs by SRB assay; assay type: functional; conditions: A549, 48 h, read-out: GI
[14] = tested on: PC-3; assay: Growth inhibition of human PC3 cells at 100 uM after 48 hrs by SRB assay; assay type: functional; conditions: PC-3, 48 h, read-out: GI
[15] = tested on: Caco-2; assay: Growth inhibition of human Caco2 cells after 48 hrs by SRB assay; assay type: functional, cell-based; conditions: for IC50: Caco-2, 48 h
[16] = tested on: THP-1; assay: Growth inhibition of human THP1 cells at 50 uM after 48 hrs by SRB assay; assay type: functional; conditions: THP-1, 48 h, read-out: GI

Structure (SMILES) | inhibition of growth at 100 µM [1] | inhibition of growth at 50 µM [2] | growth inhibition (GI) [3] | IC50 [3] | growth inhibition (GI) [4] | IC50 [4] | inhibition of growth at 100 µM [5] | inhibition of growth at 50 µM [6] | inhibition of growth at 100 µM [7] | inhibition of growth at 10 µM [8] | inhibition of growth at 10 µM [9] | inhibition of growth at 50 µM [10] | inhibition of growth at 10 µM [11] | growth inhibition (GI) [12] | IC50 [12] | inhibition of growth at 10 µM [13] | inhibition of growth at 100 µM [14] | growth inhibition (GI) [15] | IC50 [15] | inhibition of growth at 50 µM [16]
O=C1C(=O)N(CCn2cc(CN3C(=O)C(=O)c4cc(Br)ccc43)nn2)c2ccc(Cl)cc21 | 68% | 43% | Dose-dependent effect | 26.9 µM | Dose-dependent effect | 51.4 µM | 98% | 83% | 90% | 36% | 28% | 57% | 29% | Dose-dependent effect | 42.2 µM | 10% | 70% | Dose-dependent effect | 32.2 µM | 82%
O=C1C(=O)N(CCn2cc(CN3C(=O)C(=O)c4cc(Br)ccc43)nn2)c2ccccc21 | 25% | 99% | Dose-dependent effect | 51.9 µM | Dose-dependent effect | < 1 µM | 97% | 96% | 88% | 1% | 10% | 10% | 94% | Dose-dependent effect | 14.6 µM | 41% | 100% | Dose-dependent effect | > 100 µM | 53%
O=C1C(=O)N(CCn2cc(CN3C(=O)C(=O)c4cc(Cl)ccc43)nn2)c2ccc(F)cc21 | 30% | 4% | Dose-dependent effect | 36.3 µM | Dose-dependent effect | > 100 µM | 97% | 73% | 92% | 2% | 20% | 12% | 0% | Dose-dependent effect | 2.65 µM | 64% | 9% | Dose-dependent effect | > 100 µM | 70%
O=C1C(=O)N(CCn2cc(CN3C(=O)C(=O)c4cc([N+](=O)[O-])ccc43)nn2)c2ccc(Cl)cc21 | 33% | 44% | Dose-dependent effect | 26 µM | Dose-dependent effect | 53.2 µM | 99% | 80% | 88% | 17% | 29% | 21% | 30% | Dose-dependent effect | 39.3 µM | 11% | 72% | Dose-dependent effect | > 100 µM | 82%
O=C1C(=O)N(CCn2cc(CN3C(=O)C(=O)c4cc([N+](=O)[O-])ccc43)nn2)c2ccc(F)cc21 | 0% | 11% | Dose-dependent effect | 86.2 µM | Dose-dependent effect | 95.2 µM | 64% | 22% | 90% | 0% | 2% | 0% | 2% | Dose-dependent effect | 93.2 µM | 7% | 33% | Dose-dependent effect | > 100 µM | 14%
O=C1C(=O)N(CCn2cc(CN3C(=O)C(=O)c4cc(F)ccc43)nn2)c2ccccc21 | 22% | 98% | Dose-dependent effect | 39.9 µM | Dose-dependent effect | 30.1 µM | 99% | 97% | 100% | 0% | 10% | 1% | 20% | Dose-dependent effect | 38.9 µM | 11% | 100% | Dose-dependent effect | > 100 µM | 96%
O=C1C(=O)N(CCn2cc(CN3C(=O)C(=O)c4cc([N+](=O)[O-])ccc43)nn2)c2ccccc21 | 18% | 97% | Dose-dependent effect | 42.8 µM | Dose-dependent effect | 30.7 µM | 98% | 96% | 100% | 0% | 11% | 4% | 24% | Dose-dependent effect | 39.2 µM | 13% | 99% | Dose-dependent effect | > 100 µM | 97%
Cc1ccc2c(c1)C(=O)C(=O)N2Cc1cn(CCN2C(=O)C(=O)c3cc(F)ccc32)nn1 | 44% | 31% | Dose-dependent effect | 38.8 µM | Dose-dependent effect | 85.2 µM | 99% | 57% | 89% | 0% | 14% | 15% | 0% | Dose-dependent effect | 49.9 µM | 8% | 48% | Dose-dependent effect | > 100 µM | 88%
O=C1C(=O)N(CCn2cc(CN3C(=O)C(=O)c4ccccc43)nn2)c2ccc(F)cc21 | 10% | 32% | Dose-dependent effect | 88.1 µM | Dose-dependent effect | 71.1 µM | 32% | 17% | 90% | 0% | 8% | 1% | 0% | Dose-dependent effect | > 100 µM | 6% | 82% | Dose-dependent effect | > 100 µM | 15%
O=C1C(=O)N(CCn2cc(CN3C(=O)C(=O)c4cc(Br)ccc43)nn2)c2ccc(F)cc21 | 13% | 2% | Dose-dependent effect | 27.6 µM | Dose-dependent effect | > 100 µM | 98% | 79% | 94% | 0% | 26% | 7% | 0% | Dose-dependent effect | 16.4 µM | 41% | 51% | Dose-dependent effect | > 100 µM | 85%
O=C1C(=O)N(CCn2cc(CN3C(=O)C(=O)c4cc(F)ccc43)nn2)c2ccc(F)cc21 | 10% | 10% | Dose-dependent effect | 83.3 µM | Dose-dependent effect | > 100 µM | 62% | 23% | 92% | 0% | 1% | 0% | 0% | Dose-dependent effect | 90.7 µM | 5% | 30% | Dose-dependent effect | > 100 µM | 13%
